The nature of series [1]: Overall in vitro and in vivo tests of tables 1-9 (fibroblast growth, ATP, collagen, IL-8, hydration, lipids, lipid peroxides, melanin). To be noted: in association with melatonin, concentrations being equal. The protocol: Fibroblasts of NB1RGB strain were used (2×10^5 cell/ml) and suspended in the α-MEM culture medium placed in 10 Petri dishes (containing 10% foetal bovine serum (FBS), 100 units/ml penicillin and 100 µg/ml streptomycin). while two were left as control. All products were additioned in a 1 μg/ml concentration. All biochemical processes require energy that is accumulated in the form of ATP (adenosyn-triphosphate). […] Out of the 9 culture-containing Petri dishes used, 8 were additioned with 1% μg/ml of the different substances to be tested, whereas one served as control. A continuous and regular collagen synthesis is of fundamental importance for the ECM (extracellular matrix) structure, and therefore for skin elasticity and compactness and wrinkle reduction. Collagen 1 presence was verified with the use of specific antibodies on all ten cell cultures, 8 of which enriched with 1% μl/ml of the various substances directly introduced in the culture medium, and one as control. Collected blood aliquots, pre-supplemented and non-supplemented with the components under study (1 μl/ml) were subdivided into 10 Petri dishes, 8 of which were further supplemented with 10 μl/ml Tumor Necrose Factor a (TNF-α), and one left as control. […] IL-8 amounts were determined photometrically, by specific antibodies. […] During the checking, skin surface lipids and hydration were verified by 3C System. Lipid peroxides were checked with the Pugliesi method (Pugliesi P. (1990) Assessment of Antiaging Products. In: W.C. […] This experiment was meant to assess the protective activity of these compounds if and when taken orally. […] (International Units)/ml penicillin and […] streptomycin) containing 2 mM teophylline. The suspension was subdivided into 7 500-μl portions. To each portion, placed in suitable bars, […] of the various mixtures of active agents were added. Of each mixture 6 samples were prepared.

Another series concerns nerve cell cultures. The series is described as follows: Preliminary investigation of cell vitality and toxicity on nerve cell cultures (in vitro cellular models). In kind it is cell-based.
Series [2] relates to anagen phase of hair cycle. The series is described as follows: Action on the anagen phase of hair cycle: lotions A, B, C on the scalp of volunteers for 60 days. The conditions noted are these: topical lotion morning and evening. In kind it is in vivo, human. From the text:
Thirty volunteers (15 women and 15 men) suffering from general hair problems: slight thinning out, thinning, continual loss of hair and occasional formation of forms of alopecia restricted to scalp areas, were subjected to the treatment.
All subjects were given, under double-blind conditions, a lotion to be applied morning and evening by light friction, in the amount of 5/6 drops poured on the various areas and deemed sufficient for the treatment of the entire scalp.
The study lasted 60 days.
At day 0, an area of about 1 cm^2 was delimited in the anteroparietal zone of the scalp, from which hair was carefully removed. Removed hair were weighted to verify the mass thereof, and the number of follicles present was counted by a suitable grid.
At day +60, the number and weight of regrown hair were reassessed, again checking the number of follicles present.

“Also recorded” adds a separate entry of the source.

As to `CC1=C(/C=C/C(C)=C/C=C/C(C)=C/C=C/C=C(C)/C=C/C=C(C)/C=C/C2=C(C)CCCC2(C)C)C(C)(C)CCC1` [beta-carotene], in series [1], the “enhancement of melatonin action (synergy)” value (from here on “enhancement”) is given as “significantly enhance the bioprotective activity of melatonin; also recorded: further enhance the positive effects of melatonin”.
For `CC1=NCC[C@@H](C(=O)O)N1` [ectoine], the “enhancement” value in series [1] is “significantly enhance the bioprotective activity of melatonin”.
`O=C(O)CCCCC1CCSS1` (stereo not drawn) [lipoic acid]: the “enhancement” value in series [1] is listed as “significantly enhance the bioprotective activity of melatonin; also recorded: further enhance the positive effects of melatonin; also recorded: tendentially more active than carotenoids”.
Still for that read-out and setting: then `CC1=C[C@H](O)CC(C)(C)[C@H]1/C=C/C(C)=C/C=C/C(C)=C/C=C/C=C(C)/C=C/C=C(C)/C=C/C1=C(C)C[C@@H](O)CC1(C)C` [lutein], with “significantly enhance the bioprotective activity of melatonin; also recorded: further enhance the positive effects of melatonin”.
Turning to `COc1ccc2[nH]cc(CCNC(C)=O)c2c1` [melatonin], in the series on nerve cell cultures (increasing concentrations, 3-mg melatonin alone vs association of melatonin, carotenoid, immunostimulant each 11-mg), the “toxicity / reduction of cell vitality” value was “cell vitality tends to reduce; also recorded: far more toxic”. Further, the “cytoprotective action towards free radicals of Oxygen (ROS), cell vitality” value in the series on nerve cell cultures (suitable concentrations, in vitro model) is on record as “capable of preserving cell vitality”. For the same compound, in series [2], the “anagen phase of hair / hair regrowth” value is given as “causes an increase of the anagen phase of hair, thereby enhancing its regrowth” and the “hair weight (volume, body)” value is reported as “without however exerting an effect on the hair weight itself”.
As for beta-glucan, in series [1], the “enhancement” value was “significantly enhance the bioprotective activity of melatonin; also recorded: tendentially more active than ectoine”.

Values taken from patent US8802117B2 (Mavi Sud S.r.l., priority 2006, dated 2014).
